± gives the expanded uncertainty stated by the source.
Assays:
[1] = DTA
[2] = Molar enthalpy of transition or fusion; conditions: DSC

| SMILES | Triple point temperature ([1]; Crystal) | Molar enthalpy of transition or fusion ([2]; Crystal) | Triple point temperature ([1]; Crystal 1) | Triple point temperature ([1]; Crystal 2) | Molar enthalpy of transition or fusion ([2]; Crystal 2) |
| --- | --- | --- | --- | --- | --- |
| CCCCCCCCCCCC(=O)O [dodecanoic acid] | – | – | 318.29 ± 0.41 K | 317.9 ± 0.6 K | 8.51 ± 0.335 kcal/mol |
| CCCCCCCCCCCCCC(=O)O [tetradecanoic acid] | – | – | 328.13 ± 0.48 K | 327.65 ± 0.48 K | 10.5 ± 0.43 kcal/mol |

Other lines, results leading:

| Triple point temperature ([1]; Crystal) | Molar enthalpy of transition or fusion ([2]; Crystal) | Triple point temperature ([1]; Crystal 1) | Triple point temperature ([1]; Crystal 2) | Molar enthalpy of transition or fusion ([2]; Crystal 2) | SMILES |
| --- | --- | --- | --- | --- | --- |
| 336.34 ± 0.63 K | 12.7 ± 0.574 kcal/mol | – | – | – | CCCCCCCCCCCCCCCC(=O)O [hexadecanoic acid] |
| – | – | 331.82 ± 0.49 K | 330.97 ± 0.39 K | 15.6 ± 0.908 kcal/mol | CCCCCCCCCCCCCCCCCCO [1-octadecanol] |
| – | – | 311.39 ± 0.39 K | 310.45 ± 0.41 K | 11.4 ± 0.526 kcal/mol | CCCCCCCCCCCCCCO [1-tetradecanol] |
| – | – | 323.17 ± 0.41 K | 322.27 ± 0.49 K | 13.5 ± 0.765 kcal/mol | CCCCCCCCCCCCCCCCO [1-hexadecanol] |
